# “Also recorded” adds a separate entry of the source. Read-outs that look alike come from different tables or passages of the source.
# Experiments:
# XO = tested on: XO; parameters: method as in PMID 16450295; conditions: cited from earlier work
# MAO-A = tested on: MAO-A; parameters: method as in PMID 24140951; conditions: control of MAO-A inhibition; cited from earlier work
# [1] = biological target: T1, Human monoamine oxidase A (Homo sapiens, UniProt P21397); experiment: Kinetic analysis of MAO-A inhibition (KM, Vmax, apparent Ki); type: biochemical; conditions: for Note: type of inhibition approached (MAO-A): for mixed inhibitors; for Inhibition Type (MAO-A): kynuramine 25–150 µM, two fixed inhibitor concentrations; for Ki: apparent Ki, mean ± SE (n)
# T1 construct: purchased Sigma-Aldrich (Milan, Italy)
# T1 sequence (P21397 1-527): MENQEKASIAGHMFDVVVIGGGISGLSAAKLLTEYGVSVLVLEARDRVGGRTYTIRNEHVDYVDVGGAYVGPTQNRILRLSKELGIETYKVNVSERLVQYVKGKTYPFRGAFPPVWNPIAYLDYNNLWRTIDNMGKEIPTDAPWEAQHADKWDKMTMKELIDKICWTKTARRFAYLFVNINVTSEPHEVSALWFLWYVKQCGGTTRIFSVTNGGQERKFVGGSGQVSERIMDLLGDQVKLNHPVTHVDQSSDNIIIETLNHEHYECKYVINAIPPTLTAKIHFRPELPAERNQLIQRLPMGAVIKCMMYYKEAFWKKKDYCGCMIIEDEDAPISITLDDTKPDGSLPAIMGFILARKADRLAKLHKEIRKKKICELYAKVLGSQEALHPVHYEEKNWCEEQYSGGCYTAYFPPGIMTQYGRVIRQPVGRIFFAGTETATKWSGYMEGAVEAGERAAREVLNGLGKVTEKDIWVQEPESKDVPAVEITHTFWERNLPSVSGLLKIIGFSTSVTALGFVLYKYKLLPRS
# Procedure: (§1) Monoamine oxidase activity was assayed by the fluorimetric method, as previously reported. This method, based on the monoamine oxidase oxidation of its non-selective substrate kynuramine, led to the production of […], which becomes fluorescent in alkaline conditions. In steady-state measurements of MAO activity, the reaction mixture (250 µL), prepared in a 50 mM potassium phosphate buffer, pH 7.1 (buffer A), contained 40 μM kynuramine in the absence or presence of the indicated concentration of the inhibitor. The DMSO concentration carried over by the inhibitor was 0.5% (v/v), and an identical concentration of DMSO was used in the absence of the inhibitor. The reaction started with the addition of 3.75 μg monoamine oxidase A or B and lasted 20 min. The reaction was stopped by adding 150 μL of 2 M NaOH and, after 10 min of incubation at room temperature, 240 μL of water. After centrifugation (10 min at 15,000 rpm), the fluorescence signal was measured on 500 μL of supernatant using a Cary Eclipse Spectrofluorimeter (Agilent Technologies, Milan, Italy) at room temperature (20–25 °C). Excitation and emission wavelengths of 315 and 380 nm, respectively, were employed; slits were set to 10 nm for both the excitation and emission beams.
# (§2) The kinetic parameters KM and Vmax for MAO and XO substrates were obtained through kinetic measurements of these activities performed at different substrate concentrations, either in the absence or in the presence of two fixed concentrations of the various inhibitors. […] Each assay was realized as reported above, and the values of the initial velocity (vi) of the reaction were evaluated under the various experimental conditions. The data of vi were nonlinearly fitted according to the Michaelis–Menten equation or analyzed by the Lineweaver–Burk equation in order to derive the kinetic parameters in the absence (KM and Vmax) or in the presence (K’M and V’max) of the inhibitor.
# (§3) The inhibition power of the various compounds and their inhibition mechanisms were evaluated. […] However, an apparent inhibition constant (K’i) was calculated at each inhibitor concentration using the equations hereafter reported, depending on the type of inhibition tentatively approached from the experimental data:K’i = V’max × [I]/(Vmax − V’max)(1) K’i = KM × [I]/(K’M − KM)(2) K’i = K’M × [I]/(KM − K’M)(3)
# (§4) The K’i values obtained at different inhibitor concentrations were then averaged to obtain a unique value of apparent Ki for each compound.
# [2] = biological target: T2, Human monoamine oxidase B (Homo sapiens, UniProt P27338); experiment: Kinetic analysis of MAO-B inhibition (KM, Vmax, apparent Ki); type: biochemical; conditions: for Note: type of inhibition approached (MAO-B): for mixed inhibitors; for Inhibition Type (MAO-B): kynuramine 25–150 µM, two fixed inhibitor concentrations; for Ki: apparent Ki, mean ± SE (n)
# T2 construct: purchased Sigma-Aldrich (Milan, Italy)
# T2 sequence (P27338 1-520): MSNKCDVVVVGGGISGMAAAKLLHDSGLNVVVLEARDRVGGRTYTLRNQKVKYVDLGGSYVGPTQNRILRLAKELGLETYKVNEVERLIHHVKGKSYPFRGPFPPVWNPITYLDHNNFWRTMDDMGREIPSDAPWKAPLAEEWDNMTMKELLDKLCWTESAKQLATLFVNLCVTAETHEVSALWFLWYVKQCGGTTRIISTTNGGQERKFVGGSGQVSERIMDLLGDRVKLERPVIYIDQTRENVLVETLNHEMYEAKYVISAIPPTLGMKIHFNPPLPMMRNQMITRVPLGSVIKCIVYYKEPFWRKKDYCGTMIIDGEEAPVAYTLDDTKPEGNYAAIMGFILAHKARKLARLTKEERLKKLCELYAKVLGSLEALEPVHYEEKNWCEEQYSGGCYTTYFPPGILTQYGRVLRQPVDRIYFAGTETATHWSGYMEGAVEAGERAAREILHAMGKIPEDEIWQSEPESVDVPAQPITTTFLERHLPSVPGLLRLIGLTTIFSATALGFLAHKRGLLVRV
# Procedure: as §1, §2, §3, §4
# [3] = biological target: T2, Human monoamine oxidase B; experiment: Steady-state MAO-B activity, fluorimetric kynuramine assay; type: biochemical; conditions: 40 μM kynuramine, 20 min, pH 7.1; mean ± SD (n); from semilogarithmic plot
# Procedure: as §1
# [4] = biological target: T3, bovine milk xanthine oxidase (Bos taurus, UniProt P80457); experiment: Steady-state xanthine oxidase activity, spectrophotometric assay; type: biochemical; conditions: for IC50: read-out: IC50 XO inhibition; for Inhibition of XO activity (in words): steady-state, concentration series
# T3 construct: bovine milk xanthine oxidase; purchased Sigma-Aldrich (Milan, Italy); host or cells: bovine milk
# Procedure: Xanthine oxidase activity was assayed through a spectrophotometric method, essentially as previously reported. […] The DMSO concentration carried over by the inhibitor was 1% (v/v), and an identical concentration of DMSO was used in the absence of the inhibitor. The reaction started with the addition of XO and was followed kinetically for up to 30 s. The initial rate of uric acid formation was expressed as ΔE/min. The effect of each inhibitor in the XO assay was evaluated, and the data were treated as previously indicated for the MAO assay, including the extrapolation of the IC50 values.
# [5] = biological target: T1, Human monoamine oxidase A; experiment: Steady-state MAO-A activity, fluorimetric kynuramine assay; type: biochemical; conditions: 40 μM kynuramine, 20 min, pH 7.1; mean ± SD (n); from semilogarithmic plot
# Procedure: as §1, with “The reaction started with the addition of 3.75 μg monoamine oxidase A or B and lasted 20 min.” left out, “°C).” for “°C). Excitation and emission wavelengths of 315 and 380 nm, respectively, were employed; slits were set to 10 nm for both the excitation and emission beams.”
# [6] = biological target: T3, bovine milk xanthine oxidase; experiment: Kinetic analysis of xanthine oxidase inhibition; type: biochemical
# Procedure: Xanthine oxidase activity was assayed through a spectrophotometric method, essentially as previously reported. In particular, the oxidation of xanthine to uric acid catalyzed by XO was monitored with a Cary 100 UV-Vis Spectrophotometer (Agilent Technologies, Milan, Italy) at 25 °C, thanks to the increase in absorbance at 295 nm due to uric acid formation. In steady-state measurements of XO activity, the assay was carried out in a 500-μL final volume reaction mixture containing 100 mM phosphate buffer, pH 7.8 plus 0.1 mM EDTA (buffer B), 75 μM xanthine, and different concentrations of the various inhibitors. The DMSO concentration carried over by the inhibitor was 1% (v/v), and an identical concentration of DMSO was used in the absence of the inhibitor. The reaction started with the addition of XO and was followed kinetically for up to 30 s. The initial rate of uric acid formation was expressed as ΔE/min. The effect of each inhibitor in the XO assay was evaluated, and the data were treated as previously indicated for the MAO assay, including the extrapolation of the IC50 values.
# as §2
# The inhibition power of the various compounds and their inhibition mechanisms were evaluated. […]
# [7] = read-out: Ki, Calculated from KM Increase (MAO-A)
# [8] = read-out: Ki, Calculated from KM Increase (MAO-B)
# [9] = 75 μM xanthine, pH 7.8, 25 °C, mean ± SE (n), extrapolated from semilogarithmic plot
# [10] = uncompetitive, read-out: Ki, average value from Vmax or KM decrease (MAO-B)
# T3 sequence (P80457 whole entry): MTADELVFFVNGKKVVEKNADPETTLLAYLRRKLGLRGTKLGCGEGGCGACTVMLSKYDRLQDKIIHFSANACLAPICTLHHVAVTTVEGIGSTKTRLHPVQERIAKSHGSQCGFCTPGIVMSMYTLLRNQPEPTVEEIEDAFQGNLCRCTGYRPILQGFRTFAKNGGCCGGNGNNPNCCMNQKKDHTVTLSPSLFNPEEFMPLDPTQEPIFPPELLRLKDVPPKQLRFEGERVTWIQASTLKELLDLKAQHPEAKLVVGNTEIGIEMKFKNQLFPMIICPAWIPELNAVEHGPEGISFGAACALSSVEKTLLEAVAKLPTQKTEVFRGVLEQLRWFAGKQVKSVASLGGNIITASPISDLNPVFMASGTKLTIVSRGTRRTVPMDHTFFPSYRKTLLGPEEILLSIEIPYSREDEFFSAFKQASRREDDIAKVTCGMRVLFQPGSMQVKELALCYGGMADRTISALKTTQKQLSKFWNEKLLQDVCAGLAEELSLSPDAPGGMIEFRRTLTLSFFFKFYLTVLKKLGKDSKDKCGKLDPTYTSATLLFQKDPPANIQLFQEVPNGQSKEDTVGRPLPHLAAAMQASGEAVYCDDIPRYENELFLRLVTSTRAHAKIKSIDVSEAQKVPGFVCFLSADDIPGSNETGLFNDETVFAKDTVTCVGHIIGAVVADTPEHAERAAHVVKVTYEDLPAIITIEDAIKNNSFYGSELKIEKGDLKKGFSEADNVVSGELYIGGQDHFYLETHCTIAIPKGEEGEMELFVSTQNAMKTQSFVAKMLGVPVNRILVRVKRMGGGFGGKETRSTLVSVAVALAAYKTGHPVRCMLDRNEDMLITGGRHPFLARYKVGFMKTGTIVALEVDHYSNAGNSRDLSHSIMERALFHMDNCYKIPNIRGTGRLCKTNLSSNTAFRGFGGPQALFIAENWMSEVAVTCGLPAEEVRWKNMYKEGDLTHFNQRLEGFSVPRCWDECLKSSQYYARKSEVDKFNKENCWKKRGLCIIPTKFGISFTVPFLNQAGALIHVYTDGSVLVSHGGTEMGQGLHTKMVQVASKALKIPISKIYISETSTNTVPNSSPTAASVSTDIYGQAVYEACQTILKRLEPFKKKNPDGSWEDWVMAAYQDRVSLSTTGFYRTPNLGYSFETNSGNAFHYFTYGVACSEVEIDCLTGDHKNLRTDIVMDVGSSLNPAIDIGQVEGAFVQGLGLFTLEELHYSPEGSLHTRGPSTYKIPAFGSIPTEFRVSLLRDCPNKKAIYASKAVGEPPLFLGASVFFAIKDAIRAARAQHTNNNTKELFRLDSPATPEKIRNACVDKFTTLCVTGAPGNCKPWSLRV
SMILES,Note: type of inhibition approached (MAO-A) [1],Inhibition Type (MAO-A) [1],Note: type of inhibition approached (MAO-B) [2],Inhibition Type (MAO-B) [2],"Ki [1, 7] [µM]",IC50 [3] [µM],"Ki [2, 8] [µM]","IC50 [4, 9] [µM]",IC50 [5] [µM],further results
"Oc1ncnc2[nH]ncc12 [Allopurinol, allopurinol]",–,–,–,–,–,–,–,–,–,Inhibition Type (XO) (XO): Competitive [53]; Ki (XO): 1.8 µM
"C#CCN(C)CCCOc1ccc(Cl)cc1Cl [Clorgyline, clorgyline]",–,–,–,–,–,–,–,–,–,Inhibition Type (MAO-A) (MAO-A): Inactivator [52]
"COc1cc2c(cc1OC)C(=O)C(CC1CCN(Cc3ccccc3)CC1)C2 (stereo not drawn) [Donepezil, donepezil, reference compound]",approaching noncompetitive,mixed,approaching competitive,mixed,–,–,–,–,–,–
"O=C(OCCc1ccc(O)c(O)c1)C1CCN(Cc2ccccc2)CC1 [HT1, 3,4-dihydroxyphenetyl 1-benzylpiperidine-4-carboxylate]",approaching competitive,mixed,–,competitive,39.7 ± 14.3,125 ± 28,163 ± 28,454 ± 22,54.1 ± 6.9,–
CC(=O)Oc1ccc(CCOC(=O)C2CCN(Cc3ccccc3)CC2)cc1OC(C)=O [HT1a],approaching competitive,mixed,approaching competitive,mixed,36.5 ± 13.2,85 ± 33,37.9 ± 13.1,–,50.8 ± 11,"IC50 XO inhibition [4, 9]: no inhibition; Inhibition of XO activity (in words) [4]: almost ineffective; also recorded: essentially no inhibition"
"O=C(OCCc1cc(O)c(O)cc1[N+](=O)[O-])C1CCN(Cc2ccccc2)CC1 [HT2, 4,5-dihydroxy-2-nitrophenethyl 1-benzylpiperidine-4-carboxylate]",–,noncompetitive,–,uncompetitive,–,184 ± 48,–,109 ± 20,322 ± 58,"Note: type of inhibition approached (XO) [6]: approaching competitive; Ki ([6]; apparent Ki, mean ± SE (n), read-out: Ki Calculated from KM Increase (XO)): 63 ± 8 µM; Inhibition Type (XO) ([6]; xanthine 4–30 µM, 75 or 100 µM HT2): mixed-type; Ki ([1]; read-out: Ki, Calculated from Vmax Decrease (MAO-A)): 398 ± 56 µM; Ki [2, 10]: 186 ± 98 µM; Inhibition of XO activity (in words) [4]: clearly evident concentration-dependent inhibition"
"COc1cc(CCOC(=O)C2CCN(Cc3ccccc3)CC2)ccc1O [HT3, 4-hydroxy-3-methoxyphenethyl 1-benzylpiperidine-4-carboxylate]",approaching competitive,mixed,approaching competitive,mixed,7.6 ± 3.7,171 ± 44,115 ± 50,361 ± 1,23.4 ± 6.3,–
COc1cc(CCOC(=O)C2CCN(Cc3ccccc3)CC2)ccc1OC(C)=O [HT3a],–,uncompetitive,approaching competitive,mixed,–,174 ± 80,190 ± 37,282 ± 37,44.3 ± 14.4,"Ki ([1]; uncompetitive, read-out: Ki, average value from Vmax or KM decrease (MAO-A)): 80.5 ± 30.4 µM"
"O=C(OCCc1ccc(O)cc1)C1CCN(Cc2ccccc2)CC1 [HT4, 4-hydroxyphenethyl 1-benzylpiperidine-4-carboxylate]",approaching competitive,mixed,–,uncompetitive,6.1 ± 1.6,106 ± 22,–,605 ± 35,14.3 ± 2.2,"Ki [2, 10]: 128 ± 45 µM"
CC(=O)Oc1ccc(CCOC(=O)C2CCN(Cc3ccccc3)CC2)cc1 [HT4a],approaching competitive,mixed,–,competitive,15.6 ± 4.2,86 ± 24,20.7 ± 2.8,438 ± 6,57 ± 18.2,–
